Among the test systems are OVCAR-3 ovarian; M14 melanoma; K-562 leukemia; SK-OV-3 ovarian; MALME-3M melanoma; SR leukemia; SN12C renal; HT29 colon; ACHN renal; UACC-257 melanoma; MOLT-4 leukemia.
Holding throughout (test): NCI anticancer screen, dose series, 48 h

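Interpolation was linear, between the two tested concentrations surrounding the appropriate level; five concentrations were tested over 48 hours in 96-well plates. The concentration for full growth arrest is given as TGI.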

For the compound `O=C1c2ccccc2C2C1N2C(=O)C(F)(F)F` (configuration not stated), the TGI with OVCAR-3 ovarian, in the assay on M14 melanoma, in the assay on K-562 leukemia, with SK-OV-3 ovarian, with MALME-3M melanoma and in the assay on SR leukemia was above 100 µM each time. Besides, the TGI in the assay on SN12C renal, in the assay on HT29 colon, with ACHN renal, in the assay on UACC-257 melanoma and in the assay on MOLT-4 leukemia was above 100 µM throughout.

As for `COc1nc(N)c(C(=O)CCl)c(=O)n1C`, the TGI with K-562 leukemia was 34.3 µM; with MALME-3M melanoma, 22.7 µM; in the assay on SR leukemia it was 42.4 µM; with SN12C renal it was 45.2 µM; in the assay with HT29 colon, 32.3 µM; in the assay on ACHN renal, 48.5 µM. The TGI in the assay with UACC-257 melanoma was 31.3 µM; in the assay with MOLT-4 leukemia, 44.7 µM.

For the compound `CC[C@@]1(O)C(=O)OCc2c1cc1n(c2=O)Cc2c-1nc1ccccc1c2/C=N\NC(=O)CN`, the TGI is above 91 µM in the assay on OVCAR-3 ovarian; above 100 µM with K-562 leukemia; above 91.6 µM in the assay on MALME-3M melanoma; 0.464 µM in the assay with SR leukemia; above 100 µM with SN12C renal; above 49.7 µM with HT29 colon. The TGI in the assay with UACC-257 melanoma is above 60.8 µM; in the assay on MOLT-4 leukemia, 0.368 µM.

As for `NC(=O)C(c1ccccc1)N1OC2C(=O)N(c3ccccc3)C(=O)C2C1c1c2ccccc2c(Cl)c2ccccc12` (configuration not stated), the TGI in the assay with OVCAR-3 ovarian, in the assay on M14 melanoma, with K-562 leukemia, with SK-OV-3 ovarian, in the assay with MALME-3M melanoma and in the assay with SR leukemia was above 100 µM in each case. Also, the TGI in the assay on SN12C renal, in the assay on HT29 colon, with ACHN renal and in the assay with MOLT-4 leukemia was above 100 µM each time.

For the compound `COc1cc(/C=C/C(=N\NS(=O)(=O)c2ccc(C)cc2)c2sc(NNC(C)=O)nc2C)ccc1O`, the TGI with OVCAR-3 ovarian, in the assay on M14 melanoma, with SK-OV-3 ovarian, with MALME-3M melanoma, in the assay on SR leukemia and with SN12C renal was above 100 µM each time. Also, the TGI in the assay with HT29 colon, in the assay with ACHN renal, in the assay with UACC-257 melanoma and in the assay on MOLT-4 leukemia was above 100 µM throughout.

For `C=C1c2nc3ccccc3n2C=C(c2ccccc2)N1c1ccc([N+](=O)[O-])cc1`, the TGI is 60.2 µM in the assay with OVCAR-3 ovarian; above 60.4 µM in the assay on M14 melanoma; 58.2 µM in the assay on K-562 leukemia; 15.3 µM with SK-OV-3 ovarian; 25.9 µM in the assay on MALME-3M melanoma; above 70 µM with SR leukemia. Further, the TGI was above 95.2 µM in the assay on SN12C renal; above 61.1 µM in the assay with HT29 colon; 12.8 µM in the assay on ACHN renal; 63.4 µM with UACC-257 melanoma; above 100 µM in the assay on MOLT-4 leukemia.

With `O=C1OCC(O)=C1C(c1ccc(Cl)cc1)c1cc2c(cc1O)OCO2` (configuration not stated), the TGI in the assay with OVCAR-3 ovarian, with M14 melanoma, in the assay with K-562 leukemia, in the assay on SK-OV-3 ovarian, in the assay with MALME-3M melanoma and with SR leukemia was above 100 µM in each case. The TGI in the assay on SN12C renal, in the assay with HT29 colon, in the assay on ACHN renal and with MOLT-4 leukemia was above 100 µM each time.

Turning to `C=C(Br)C(C)(Cl)CCC(Br)C(C)(C)Cl` (configuration not stated), the TGI with OVCAR-3 ovarian is 35.6 µM; in the assay on M14 melanoma, above 100 µM; with K-562 leukemia, above 100 µM; in the assay on SK-OV-3 ovarian it was above 100 µM; in the assay on MALME-3M melanoma, 57.8 µM; in the assay on SR leukemia, above 100 µM. For the same compound, the TGI is above 100 µM in the assay on SN12C renal; above 100 µM in the assay with HT29 colon; 75 µM with ACHN renal; 85 µM in the assay with UACC-257 melanoma; above 100 µM in the assay on MOLT-4 leukemia.

For the compound `CCNC(=S)N/N=C/c1cc([N+](=O)[O-])ccc1O`, the TGI in the assay with M14 melanoma was above 100 µM; with K-562 leukemia, above 100 µM; in the assay on SK-OV-3 ovarian, above 100 µM; with MALME-3M melanoma, above 100 µM; with SR leukemia, 59.3 µM; in the assay on SN12C renal it was above 100 µM. Also, the TGI in the assay on HT29 colon was above 100 µM; with ACHN renal, above 100 µM; in the assay with UACC-257 melanoma it was above 100 µM; in the assay on MOLT-4 leukemia, 63.7 µM.

Take `Cc1cccc2c(=O)cc(-c3ccccc3)[nH]c12`: the TGI in the assay with OVCAR-3 ovarian, in the assay with M14 melanoma, with K-562 leukemia, with MALME-3M melanoma, in the assay with SR leukemia and in the assay on SN12C renal was above 100 µM throughout. The TGI in the assay on HT29 colon, in the assay with ACHN renal, in the assay with UACC-257 melanoma and with MOLT-4 leukemia was above 100 µM throughout.

Turning to `CCN(CC)CCC(=O)Nc1ccc2c(c1)C(=O)c1ccc(NC(=O)CCN(CC)CC)cc1C2=O`, the TGI in the assay with M14 melanoma came to 27.1 µM; in the assay on K-562 leukemia, 14.8 µM; in the assay on SK-OV-3 ovarian it was 21.7 µM; in the assay with SR leukemia it was 14.5 µM; in the assay on SN12C renal, 13.4 µM; in the assay with HT29 colon, 12.5 µM. For the same compound, the TGI was 16.3 µM with ACHN renal, 29.7 µM with UACC-257 melanoma and 12.2 µM with MOLT-4 leukemia.

`[N-]=[N+]=Nc1cc(=O)oc2ccccc12`: the TGI in the assay with M14 melanoma, in the assay with K-562 leukemia, with SK-OV-3 ovarian, with MALME-3M melanoma, with SR leukemia and with SN12C renal was above 100 µM throughout. Also, the TGI in the assay with HT29 colon, in the assay with ACHN renal, in the assay on UACC-257 melanoma and in the assay on MOLT-4 leukemia was above 100 µM each time.

Regarding `O=C(O)c1cccc2c1/C(=N/Nc1ccccc1)CC2`, the TGI in the assay on OVCAR-3 ovarian, with M14 melanoma, in the assay with K-562 leukemia, with SK-OV-3 ovarian, with SR leukemia and with HT29 colon was above 100 µM in each case. Besides, the TGI with ACHN renal, with UACC-257 melanoma and in the assay with MOLT-4 leukemia was above 100 µM in each case.

As to `Cc1cc(=O)[nH]c(NN2C(Cl)C(=O)C2c2ccccc2O)n1` (configuration not stated), the TGI in the assay with OVCAR-3 ovarian is 23.3 µM; with M14 melanoma it was above 34.7 µM; with K-562 leukemia it was above 100 µM; in the assay with SK-OV-3 ovarian it was above 100 µM; in the assay on SR leukemia, above 100 µM; in the assay with SN12C renal it was above 64 µM. For the same compound, the TGI in the assay with HT29 colon, with ACHN renal, in the assay with UACC-257 melanoma and with MOLT-4 leukemia was above 100 µM in each case.

The values are drawn from PubChem BioAssay (NCI).
